Laboratory results reported in US4205069A, “Dipeptide narcotic antagonists” (American Home Products Corporation, priority 1978, dated 1980).

Columns and labels:
[1] = system: morphine-induced analgesia; experiment: Antagonism of morphine-induced analgesia, tail-flick test; format: in vivo, rat; details: rats, tail-flick latency >8 sec
Description: (§1) Duration of analgesia may conveniently be determined by testing for analgesia at regular intervals using a modification of the procedure of D'Amour and Smith, J. Pharmacol., 72, 74 (1941), the tail-flick test. In this test, the existence of analgesia in a rat is determined by measuring the increase in the latency period during which a rat will tolerate a high intensity light beam shining on the tip of its tail.
^a All rats were tested at 5minute intervals in the tailflick test
until latencies of 2 to 5 sec. were obtained on three consecutive trials.
All rats then received an injection of morphine sulfate (as indicated in
the table) and were returned to the tailflick test until three consecutiv
trials with no movement of the tail for 8 seconds were obtained. The rats
then received a subcutaneous injection of the test compound, or a control
injection, and were returned to the tailflick test to determine the
^b The duration score is the number of minutes the animal was
completely analgesic (tailflick latency >8 sec.) following injection of […]

[2] = system: analgesia produced by intraventricular HTyr-D-Ala-Gly-Phe-D-Leu-NH2; experiment: Antagonism of enkephalin analog-induced analgesia, tail-flick test; format: in vivo, rat; details: rats, HTyr-D-Ala-Gly-Phe-D-Leu-NH2 1 μg intraventricular
Description: as §1
^a The procedure is the same as in Example 11 except that analgesia
was produced by an intraventricular injection of
HTyr-D-Ala-Gly-Phe-D-Leu-NH2, 1 μg. in 10 μ1. of Ringers
^b The duration score was the same as in Table 1.

[3] = morphine sulfate 2.5 mg/kg subcutaneously, test compound 2.5 mg/kg s.c.
[4] = morphine sulfate 2.5 mg/kg subcutaneously, test compound 5 mg/kg s.c.
[5] = morphine sulfate 5 mg/kg intraperitoneally, test compound 5 mg/kg s.c.

Structure (SMILES) | Mean Duration of Analgesia ([1]; morphine sulfate 2.5 mg/kg subcutaneously, test compound 1 mg/kg s.c.) | Mean Duration of Analgesia [1, 3] | Mean Duration of Analgesia [1, 4] | Mean Duration of Analgesia [1, 5] | Mean Duration of Analgesia ([2]; test compound 5 mg/kg s.c.) | Mean Duration of Analgesia ([1]; morphine sulfate 5 mg/kg intraperitoneally, test compound 2.5 mg/kg s.c.) | Mean Duration of Analgesia ([2]; test compound 1.25 mg/kg s.c.) | Mean Duration of Analgesia ([2]; test compound 10 mg/kg s.c.)
C[C@@H](NC(=O)[C@@H](N)Cc1ccc(O)cc1)C(N)=O [H-Tyr-D-Ala-NH2] | > 90.00 min | 55.00 min | 40.00 min | 41.67 min | 31.0 min |  |  | 
COC(=O)[C@@H](C)NC(=O)[C@@H](N)Cc1ccc(O)cc1 [H-Tyr-D-Ala-O-Me, H-Tyr-D-Ala-OMe] |  | 45.00 min | 61.67 min | 27.50 min | 5.0 min | 37.50 min | 20.0 min | 50.0 min
